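Cells were grown in 96-well plates and exposed to each compound for 48 hours at five concentrations; endpoints were interpolated linearly between bracketing concentrations, or set to the highest concentration if not reached. Here, GI50 denotes the concentration required for 50% inhibition of growth.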 Activity calls are given as the source filed them. No stated cut-off is given here; in the data, active = GI50 up to about 1.1 µM and inactive = higher.
Key:
Test in all cases: NCI tumour cell line growth inhibition, 48 h
[1] = system: EKVX
[2] = system: SW-620
[3] = system: OVCAR-3
[4] = system: HCC 2998
[5] = system: HL-60
[6] = system: IGROV-1
[7] = system: SK-OV-3
[8] = system: HCT-15
[9] = system: OVCAR-4
[10] = system: RPMI-8226
[11] = system: NCI-H226
[12] = system: SN12C
[13] = system: HOP-18
[14] = system: SNB-75
[15] = system: SF-295
[16] = system: A498
[17] = system: XF498
[18] = system: 786-0
[19] = system: SK-MEL-2
[20] = system: SF-539
[21] = system: COLO 205
[22] = system: CCRF-CEM
[23] = system: UACC-257
[24] = system: LOX IMVI
[25] = system: SNB-19
[26] = system: SR
[27] = system: M14
[28] = system: U-251
[29] = system: KM12
[30] = system: HCT-116
[31] = system: NCI-H23
[32] = system: A549
[33] = system: DLD-1
[34] = system: K562
[35] = system: ACHN
[36] = system: UO-31
[37] = system: HT-29
[38] = system: SF-268
[39] = system: SNB-78
[40] = system: RXF 393
[41] = system: LXFL 529
[42] = system: HOP-92
[43] = system: SK-MEL-5
[44] = system: TK-10
[45] = system: Malme-3M
[46] = system: HOP-62
[47] = system: NCI-H522
[48] = system: OVCAR-5
[49] = system: OVCAR-8
[50] = system: KM-20L2
[51] = system: NCI-H460
[52] = system: CAKI-1
[53] = system: UACC-62
[54] = system: M19-MEL
[55] = system: MOLT-4
[56] = system: DMS-273
[57] = system: DMS-114
[58] = system: SK-MEL-28
[59] = system: T47D
[60] = system: PC-3
[61] = system: NCI/ADR-RES
[62] = system: MDA-MB-231
[63] = system: DU-145
[64] = system: MDA-N
[65] = system: MDA-MB-435
[66] = system: MCF7
[67] = system: BT-549

Measured: GI50

C/C(=N\NS(=O)(=O)c1ccc(C)cc1)C(CN1CCCCC1)C(c1ccccc1)c1c(O)c2ccccc2oc1=O (configuration not stated)
inactive: [1] > 100 µM | [2] 70.6 µM | [3] > 100 µM | [4] > 100 µM | [5] > 100 µM | [6] > 100 µM | [7] > 100 µM | [9] > 100 µM | [10] > 100 µM | [11] > 100 µM | [12] > 100 µM | [13] > 100 µM | [14] > 100 µM | [15] > 100 µM | [16] > 100 µM | [17] > 100 µM | [18] > 100 µM | [19] > 100 µM | [20] > 100 µM | [21] > 100 µM | [22] > 100 µM | [23] > 100 µM | [24] > 100 µM | [25] > 100 µM | [26] 57 µM | [27] > 100 µM | [28] > 100 µM | [29] > 100 µM | [30] > 100 µM | [31] > 100 µM | [32] > 100 µM | [33] > 100 µM | [34] > 100 µM | [35] > 100 µM | [36] > 100 µM | [37] > 100 µM | [38] > 100 µM | [39] > 100 µM | [40] 39.6 µM | [41] > 100 µM | [42] 95.7 µM | [43] > 100 µM | [44] > 100 µM | [45] > 100 µM | [46] > 100 µM | [47] 80.9 µM | [48] > 100 µM | [49] > 100 µM | [50] > 100 µM | [51] > 100 µM | [52] > 100 µM | [53] > 100 µM
> 100 µM: [8]

CN(C)/N=N/c1c[nH]nc1C(N)=O
64.1 µM: [8]
inactive: [1] > 100 µM | [54] > 100 µM | [2] > 100 µM | [3] > 100 µM | [4] > 100 µM | [5] > 100 µM | [6] > 100 µM | [7] > 100 µM | [55] > 100 µM | [9] > 100 µM | [10] > 100 µM | [11] > 100 µM | [12] > 100 µM | [56] > 100 µM | [13] > 100 µM | [14] > 100 µM | [15] > 100 µM | [16] > 100 µM | [17] > 100 µM | [18] > 100 µM | [19] > 100 µM | [20] > 100 µM | [21] > 100 µM | [22] > 100 µM | [23] > 100 µM | [24] 53.1 µM | [25] > 100 µM | [26] 31.3 µM | [27] > 100 µM | [57] > 100 µM | [58] > 100 µM | [28] > 100 µM | [29] > 100 µM | [30] > 100 µM | [31] > 100 µM | [32] > 100 µM | [33] > 100 µM | [34] 54.8 µM | [35] 76.7 µM | [37] > 100 µM | [38] > 100 µM | [41] > 100 µM | [42] > 100 µM | [43] > 100 µM | [44] > 100 µM | [45] > 100 µM | [46] > 100 µM | [47] 42.9 µM | [48] > 100 µM | [49] > 100 µM | [50] > 100 µM | [51] > 100 µM | [52] > 100 µM | [53] 16.2 µM

Cc1ccccc1C(CCCO)C(=O)O (configuration not stated)
inactive: [1] > 100 µM | [54] > 100 µM | [2] > 100 µM | [3] > 100 µM | [4] > 10 µM | [5] > 100 µM | [6] > 100 µM | [7] > 100 µM | [55] > 100 µM | [9] > 100 µM | [10] > 100 µM | [12] > 100 µM | [56] > 100 µM | [14] > 100 µM | [15] > 100 µM | [16] > 100 µM | [17] > 100 µM | [18] > 100 µM | [19] > 100 µM | [20] > 100 µM | [21] > 100 µM | [22] > 100 µM | [23] > 100 µM | [24] > 100 µM | [25] > 100 µM | [27] > 100 µM | [57] > 100 µM | [58] > 100 µM | [28] > 100 µM | [29] > 100 µM | [30] > 100 µM | [31] > 100 µM | [32] > 100 µM | [33] > 100 µM | [34] > 100 µM | [35] > 100 µM | [36] > 100 µM | [37] > 100 µM | [38] > 100 µM | [39] > 100 µM | [40] > 100 µM | [41] > 100 µM | [42] > 100 µM | [43] > 100 µM | [44] > 100 µM | [45] > 100 µM | [46] > 100 µM | [47] > 100 µM | [48] > 100 µM | [49] > 100 µM | [51] > 100 µM | [52] > 100 µM | [53] > 100 µM
> 100 µM: [8]

COc1ccc(/C=C2/C(=O)N(C(=O)c3ccccc3O)N=C2C)cc1
inactive: [59] 4.32 µM | [2] 1.44 µM | [11] 1.35 µM | [21] 18.2 µM | [27] 16.4 µM | [58] 9.4 µM | [37] 4.57 µM | [44] 6.04 µM | [48] 11.2 µM | [50] 16.5 µM
active: [1] 0.608 µM | [60] 0.535 µM | [54] 0.542 µM | [3] 0.338 µM | [5] 0.292 µM | [61] 0.984 µM | [6] 0.0234 µM | [7] 0.0789 µM | [55] 0.244 µM | [62] 0.126 µM | [9] 0.655 µM | [63] 0.192 µM | [10] 0.895 µM | [12] 0.65 µM | [15] 0.0946 µM | [16] 0.0202 µM | [64] 0.125 µM | [17] 0.3 µM | [18] 0.598 µM | [19] 0.327 µM | [20] 0.109 µM | [22] 0.124 µM | [23] 0.442 µM | [65] 0.05 µM | [24] 0.28 µM | [25] 0.0484 µM | [26] 0.232 µM | [57] 0.117 µM | [66] 0.617 µM | [28] 0.0692 µM | [30] 0.091 µM | [31] 0.114 µM | [32] 0.175 µM | [33] 0.0828 µM | [34] 0.0492 µM | [35] 0.0418 µM | [36] 0.0445 µM | [67] 0.105 µM | [38] 0.202 µM | [39] 0.033 µM | [40] < 0.0446 µM | [41] 0.205 µM | [42] 0.0441 µM | [43] 0.218 µM | [46] 0.356 µM | [47] 0.356 µM | [49] 0.238 µM | [51] 0.262 µM | [52] 0.0962 µM | [53] 0.0968 µM
0.263 µM: [8]

CN1CCc2[nH]c3ccccc3c2C1
inactive: [1] > 100 µM | [54] > 100 µM | [2] > 100 µM | [3] > 100 µM | [4] > 100 µM | [5] 87.9 µM | [61] > 100 µM | [6] > 100 µM | [7] > 100 µM | [55] > 100 µM | [9] > 100 µM | [10] > 100 µM | [11] > 100 µM | [12] > 100 µM | [56] > 100 µM | [13] > 100 µM | [14] > 100 µM | [15] > 100 µM | [16] > 100 µM | [17] > 100 µM | [19] > 100 µM | [20] > 100 µM | [21] > 100 µM | [22] > 100 µM | [23] > 100 µM | [24] > 100 µM | [25] > 100 µM | [57] > 100 µM | [66] > 100 µM | [58] > 100 µM | [28] > 100 µM | [29] > 100 µM | [30] > 100 µM | [31] > 100 µM | [32] > 100 µM | [33] > 100 µM | [34] > 100 µM | [36] > 100 µM | [37] > 100 µM | [38] > 100 µM | [39] > 100 µM | [40] > 100 µM | [42] > 100 µM | [43] > 100 µM | [45] > 100 µM | [46] > 100 µM | [47] > 100 µM | [48] > 100 µM | [49] > 100 µM | [50] > 100 µM | [51] > 100 µM | [52] > 100 µM | [53] > 100 µM
> 100 µM: [8]

Reference: ChEMBL document CHEMBL1201862, “PubChem BioAssay data set” (2004)
